# Experimental data: PubChem BioAssay AID2060497 (Molecular Pharmacology Branch, DTP, NCI, 2025)
# Values joined by “and” are separate entries in the source; they are usually repeats but may differ in a detail not shown here. Equal entries are not always repeated.
# System: 317291-083-R-J1-PDC complex spheroids, viability
# Assay: Anticancer human tumor 317291-083-R-J1-PDC patient-derived soft tissue sarcoma cell line growth inhibition [GQUAD]
# Details: for viability, T/C: stronger effect = lower value
# From the text: DNA G-quadruplex Stabilizer Agents in Combinations in Complex Spheroids
# A high-throughput screen of multi-cell type tumor spheroids was designed to identify active combinations of DNA G-quadruplex stabilizer agents and targeted small molecules. Complex spheroids include a stromal component modeled by human endothelial cells (HUVEC) and fibroblasts modeled by human mesenchymal stem cells (MSCs). The concentration ranges selected for each drug and investigational agent were based upon clinically achievable concentrations if the clinical Cmax of the agent was known.
# Compounds. The drugs and investigational agents: pidnarulex (CX-5461; NSC782164), APTO-253 (NSC789042), BRACO-19 (NSC847499), peposertib (NSC802822), ceralasertib (NSC780249), elimusertib (NSC800525), camonsertib (NSC841442), AZD-1390 (NSC803789), olaparib (NSC753686), talazoparib (NSC767125), ART-558 (NSC835418), sotorasib (NSC818433), MRTX-1133 (NSC836407), SN-38 (NSC673596), topotecan (NSC609699), etoposide (NSC141540), doxorubicin (NSC123127), gemcitabine (NSC613327), 5-fluorouracil (NSC19893), paclitaxel (NSC125973), vemurafenib (NSC761431), panobinostat (NSC761190), R-306465 (JNJ-16241199; NSC773264), adavosertib (NSC754352), TP-3654 (NSC805149), carboplatin (NSC241240), KSQ-4279 (NSC840948), and staurosporine (NSC755774) were obtained from the National Cancer Institute (NCI) Developmental Therapeutics Program Chemical Repository (34). The FDA-approved anticancer drug set is available from the NCI Developmental Therapeutics Program. […] The stock solutions were prepared in dimethyl sulfoxide (DMSO, Sigma-Aldrich, St. Louis, MO, cat. D2650) at 800-fold the tested concentration and stored at -70 degrees C prior to their use. All drugs and investigational agents were tested over a range starting from a high concentration at or near the clinical Cmax and decreasing in half-log increments. If the clinical Cmax for an agent had not been determined, the highest concentration tested was 10 microM.
# 2.3 Cell Culture. All cells were maintained in an incubator at 37 degrees C and 5% CO2 with 95% humidity. The PDC lines were cultured according to standard operating procedures established by the NCI PDMR. All PDCs were thawed and cultured in Matrigel-coated flasks prepared with a working solution of 1X Ham's F-12 nutrient mix, without supplementation (Invitrogen, cat. 11765054), 100 U/mL penicillin-streptomycin (Invitrogen, cat. 15140122), and 2.5% Matrigel (Corning Inc., cat. 354248) for the first three passages. The 857933-349-R-J2-PDC line was cultured in 6C/Colon 1B media, which includes advanced DMEM/F-12 (Thermo Fisher Scientific, cat. 12634028), 10 mM HEPES (Thermo Fisher Scientific, cat. 15630080), 1X GlutaMAX supplement (Thermo Fisher Scientific, cat. 35050061), 0.1 mg/mL primocin (InvivoGen, cat. ant-pm-2), 10% defined fetal bovine serum, heat inactivated (HyClone Laboratories Inc., cat. SH30070.03HI), 50% L-WRN conditioned media (ATCC, cat. CRL-3276), 1.25 mM N-Acetyl-L-cysteine (Sigma-Aldrich, cat. A9165), 10 mM nicotinamide (Sigma-Aldrich, cat. N0636), 1X B-27 supplement (Thermo Fisher Scientific, cat. 17504044), 1X N-2 supplement (Thermo Fisher Scientific, cat. 17502048), 10 microM Y-27632 dihydrochloride (Tocris Bioscience, cat. 1254), and 50 ng/mL human EGF recombinant protein (Thermo Fisher Scientific, cat. PHG0311). The 485176-168-R4-J1-PDC line was cultured in Panc media, which includes all 6C/Colon 1B media components plus 100 ng/mL human FGF-10 (Thermo Fisher Scientific, cat. 100-26), 500 nM SB-431542 (Selleckchem, cat. S1067), and gastrin (Tocris, cat. 3006).
# […]
# 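Also: spheroids exposed to compounds for one week before readout.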
# 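For viability, T/C in this document: percent viability relative to DMSO vehicle wells taken as 100%.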
compound,measurement,setting,value
Cc1cccc(N(C)C(=O)C2C(O)CCN2c2nc(C)cc(C(F)(F)F)c2C#N)c1 (stereo not drawn) + Cc1cnc(CNC(=O)c2c(=O)c3ccc(N4CCCN(C)CC4)nc3n3c2sc2ccccc23)cn1,IC50,"curve of first compound, second compound 0.0316 µM",> 10000 nM
same,IC50,"curve of first compound, second compound 0.1 µM",> 10000 nM
same,IC50,"curve of first compound, second compound 0.316 µM",4450 nM
same,IC50,"curve of first compound, second compound 1 µM",< 31.6 nM
same,IC50,"curve of first compound, second compound 3.16 µM",< 31.6 nM
same,IC50,"curve of first compound, second compound 10 µM",< 31.6 nM
same,"viability, T/C","second compound 0.0316 µM, first compound 0.0316 µM",118%
same,"viability, T/C","second compound 0.0316 µM, first compound 0.1 µM",81.9%
same,"viability, T/C","second compound 0.0316 µM, first compound 0.316 µM",89.3%
same,"viability, T/C","second compound 0.0316 µM, first compound 1 µM",84.5%
same,"viability, T/C","second compound 0.0316 µM, first compound 3.16 µM",85.2%
same,"viability, T/C","second compound 0.0316 µM, first compound 10 µM",80.2%
same,"viability, T/C","second compound 0.1 µM, first compound 0.0316 µM",78.7%
same,"viability, T/C","second compound 0.1 µM, first compound 0.1 µM",58.7%
same,"viability, T/C","second compound 0.1 µM, first compound 0.316 µM",62.3%
same,"viability, T/C","second compound 0.1 µM, first compound 1 µM",74%
same,"viability, T/C","second compound 0.1 µM, first compound 3.16 µM",56%
same,"viability, T/C","second compound 0.1 µM, first compound 10 µM",61.2%
same,"viability, T/C","second compound 0.316 µM, first compound 0.0316 µM",41.6%
same,"viability, T/C","second compound 0.316 µM, first compound 0.1 µM",83.8%
same,"viability, T/C","second compound 0.316 µM, first compound 0.316 µM",48%
same,"viability, T/C","second compound 0.316 µM, first compound 1 µM",43.2%
same,"viability, T/C","second compound 0.316 µM, first compound 3.16 µM",64%
same,"viability, T/C","second compound 0.316 µM, first compound 10 µM",35.5%
same,"viability, T/C","second compound 1 µM, first compound 0.0316 µM",38.2%
same,"viability, T/C","second compound 1 µM, first compound 0.1 µM",29.7%
same,"viability, T/C","second compound 1 µM, first compound 0.316 µM",37.7%
same,"viability, T/C","second compound 1 µM, first compound 1 µM",28.5%
same,"viability, T/C","second compound 1 µM, first compound 3.16 µM",37.9%
same,"viability, T/C","second compound 1 µM, first compound 10 µM",30.1%
same,"viability, T/C","second compound 3.16 µM, first compound 0.0316 µM",25.4%
same,"viability, T/C","second compound 3.16 µM, first compound 0.1 µM",22.3%
same,"viability, T/C","second compound 3.16 µM, first compound 0.316 µM",16.1%
same,"viability, T/C","second compound 3.16 µM, first compound 1 µM",18.2%
same,"viability, T/C","second compound 3.16 µM, first compound 3.16 µM",28.9%
same,"viability, T/C","second compound 3.16 µM, first compound 10 µM",33.5%
same,"viability, T/C","second compound 10 µM, first compound 0.0316 µM",33.2%
same,"viability, T/C","second compound 10 µM, first compound 0.1 µM",35.5%
same,"viability, T/C","second compound 10 µM, first compound 0.316 µM",24.4%
same,"viability, T/C","second compound 10 µM, first compound 1 µM",42.2%
same,"viability, T/C","second compound 10 µM, first compound 3.16 µM",28.8%
same,"viability, T/C","second compound 10 µM, first compound 10 µM",52.6%
COc1cc(C2c3cc4c(cc3C(OC3OC5COC(C)OC5C(O)C3O)C3COC(=O)C23)OCO4)cc(OC)c1O (stereo not drawn),"viability, T/C",compound 0.0316 µM,94.7% and 99.8% (2×)
same,"viability, T/C",compound 0.1 µM,96.7% and 94.9% and 84.3%
same,"viability, T/C",compound 0.316 µM,48.8% and 64% and 53.8%
same,"viability, T/C",compound 1 µM,22.1% and 20.2% and 30.3%
same,"viability, T/C",compound 3.16 µM,15.9% and 15.7% and 15.8%
same,"viability, T/C",compound 10 µM,12% and 11.2% and 17%
same,IC50,curve of compound,311 nM and 457 nM and 384 nM
Cc1[nH]c2ccc(F)cc2c1-c1nc2c3cccnc3c3ncccc3c2[nH]1,IC50,"compound alone, run of 02/20/2024",> 10000 nM
CC1COCCN1c1cc(C2(O)CC3CCC(C2)O3)c2cnn(-c3ccn[nH]3)c2n1 (stereo not drawn),"viability, T/C",compound 0.0316 µM,57.9% and 71.5% and 44.9%
same,"viability, T/C",compound 0.1 µM,37.3% and 29.8% and 26.9%
same,"viability, T/C",compound 0.316 µM,14.3% and 11.5% and 14.8%
same,"viability, T/C",compound 1 µM,20.7% and 20.3% and 15.5%
same,"viability, T/C",compound 3.16 µM,14.6% and 11.3% and 12.4%
same,"viability, T/C",compound 10 µM,2.47% and 3.18% and 2.04%
same,IC50,curve of compound,46.9 nM and 56.9 nM and < 31.6 nM
CC(C)(O)C1CCC(Nc2ccc3ncc(-c4cccc(C(F)(F)F)c4)n3n2)CC1 (stereo not drawn),"viability, T/C",compound 0.0316 µM,116% and 108% and 110%
same,"viability, T/C",compound 0.1 µM,95.4% and 96.7% and 97.2%
same,"viability, T/C",compound 0.316 µM,83% and 89.8% and 76.7%
same,"viability, T/C",compound 1 µM,30% and 33.8% and 28.6%
same,"viability, T/C",compound 3.16 µM,0.43% and 0.52% and 1.03%
same,"viability, T/C",compound 10 µM,0.85% and 0.69% and 1%
same,IC50,curve of compound,633 nM and 711 nM and 588 nM
COc1ccc([C@@H](O)c2cc(-c3ncnc4cc(N5CCOCC5)ccc34)c(F)cc2Cl)nn1,"viability, T/C",compound 0.0316 µM,95.9% and 104% and 114%
same,"viability, T/C",compound 0.1 µM,97.8% and 87.1% and 92.8%
same,"viability, T/C",compound 0.316 µM,103% (2×) and 99.2%
same,"viability, T/C",compound 1 µM,72.4% and 93.8% and 95%
same,"viability, T/C",compound 3.16 µM,74.5% and 61.3% and 76.2%
same,"viability, T/C",compound 10 µM,42.8% and 34.4% and 49.6%
same,IC50,curve of compound,7570 nM and 5130 nM and > 10000 nM
CCCS(=O)(=O)Nc1ccc(F)c(C(=O)c2c[nH]c3ncc(-c4ccc(Cl)cc4)cc23)c1F,"viability, T/C",compound 0.0316 µM,104% and 114% and 118%
same,"viability, T/C",compound 0.1 µM,97.3% and 110% and 95%
same,"viability, T/C",compound 0.316 µM,102% and 113% and 121%
same,"viability, T/C",compound 1 µM,86.6% and 83.1% and 87%
same,"viability, T/C",compound 3.16 µM,46.4% and 66% and 62.4%
same,"viability, T/C",compound 10 µM,12.2% and 13.6% and 14.5%
same,IC50,curve of compound,2840 nM and 4300 nM and 4140 nM
